Experimental data taken from patent US20240358693A1, “METHODS OF TREATING PAIN” (Aisa Pharma, Inc., priority 2023, published 2024).

Test system: participants with SSc-RP
Experiment: Scleroderma Health Assessment Questionnaire (SHAQ): disability indices and visual analog scales
Type: in vivo, human
Conditions: Day 12 vs baseline; PP Population, Part A; SSc patients; sensitivity analysis
Description: The standard, validated, patient reported outcome measures tool for SSc patients, the Scleroderma Health Assessment Questionnaire (SHAQ), will be used to assess the participant qualify of life. Details are attached in the Appendix. The participant quality of life will be scored, and a disability index calculated for each questionnaire completed by the patient at Screening and each in-clinic visit. The absolute change in participant quality of life from baseline to the end of each dosing period will be calculated similar to frequency data as before.
The SHAQ includes a Raynaud's VAS, which will be reported at screening and each in-clinic visit. The absolute change in Raynaud-VAS, assessed by the participants response to the SHAQ question ‘In the past 7 days, how much have your Raynaud's interfered with your daily activities?’ at baseline and the end of each dosing period will be calculated similar to frequency data as before.
The SHAQ is used to calculate a Disability Index to assess the participant qualify of life. The eight categories assessed by the Disability Index are 1) dressing and grooming, 2) arising, 3) eating, 4) walking, 5) hygiene, 6) reach, 7) grip, and 8) common daily activities. For each of these categories, patients report the amount of difficulty they have in performing two or three specific activities.
There are four possible responses for the Disability Index questions: • Without any difficulty=0 • With some difficulty=1 • With much difficulty=2 • Unable to do=3. • The highest score reported by the patient for any component question of the eight categories determines the score for that category. • If a component question is left blank or the response is too ambiguous to assign a score, then the score for that category is determined by the remaining completed question(s). • If all component questions are blank or if more than one answer is given, then follow up with the respondent is required. • If the respondent's mark is between the response columns, then move it to the closest one. If it's directly between the two, move it to the higher one.
Each of the disability items on the SHAQ has a companion aids/devices variable that is used to record what type(s) of assistance, if any, the participant uses for his/her usual activities. These variables (see below) are coded as follows: • 0=No assistance is needed. • 1=A special device is used by the patient in his/her usual activities. • 2=The patient usually needs help from another person. • 3=The patient usually needs BOTH a special device AND help from another person.
The scoring variables and scoring rules permit the computation of two disability indices, the Standard Disability Index and the Alternative Disability Index.
This question results in a new set of category scores that are computed by adjusting the score for each category, if necessary, based on the patient's use of an aid or device or assistance for that category. If either devices and/or help from another person are checked for a category, the score is set to “2”, unless the score is already “3” (i.e., scores of “0” or “1” are increased to “2”). For example, if the highest score for the dressing category is “1”, and the patient says they use a device for dressing, the computed category score would be “2”. The sum of the computed categories scores is then calculated and divided by the number of categories answered. This gives a score in the 0 to 3 range.
The aid and device variables are not used to calculate the alternative disability index; it is calculated by adding the scores for each of the categories and dividing by the number of categories answered. This gives a score in the 0 to 3 range.
The standard, validated, patient reported outcome measures tool for SSc patients, the SHAQ, was collected at the time points specified in the study schedules (FIG. 2 and FIGS. 4A and 4B) to assess the participant's quality of life. The SHAQ included a Raynaud's VAS that will also be reported separately.

Q: What does the source list for `COCCOC(=O)C1=C(C)NC(C)=C(C(=O)OC/C=C/c2ccccc2)C1c1cccc([N+](=O)[O-])c1` (stereo not drawn) [Any Cilnidipine]?
A: SHAQ Alternative Disability Index, Change from Baseline, Max: 0.38; SHAQ Alternative Disability Index, Change from Baseline, Mean: −0.006; SHAQ Alternative Disability Index, Change from Baseline, Median: 0.000; SHAQ Alternative Disability Index, Change from Baseline, Min: −0.29; SHAQ Alternative Disability Index, Change from Baseline, Q1: −0.125; SHAQ Alternative Disability Index, Change from Baseline, Q3: 0.000; SHAQ Alternative Disability Index, Percent Change from Baseline, Max: 300.0%; SHAQ Alternative Disability Index, Percent Change from Baseline, Mean: 21.32%; SHAQ Alternative Disability Index, Percent Change from Baseline, Median: −10.00%; SHAQ Alternative Disability Index, Percent Change from Baseline, Min: −100.0%; SHAQ Alternative Disability Index, Percent Change from Baseline, Q1: −28.57%; SHAQ Alternative Disability Index, Percent Change from Baseline, Q3: 42.86%; SHAQ Visual Analogue Scale - Finger Ulcers, Change from Baseline, Max: 0.40; SHAQ Visual Analogue Scale - Finger Ulcers, Change from Baseline, Mean: −0.540; SHAQ Visual Analogue Scale - Finger Ulcers, Change from Baseline, Median: −0.100; SHAQ Visual Analogue Scale - Finger Ulcers, Change from Baseline, Min: −3.20; SHAQ Visual Analogue Scale - Finger Ulcers, Change from Baseline, Q1: −0.700; SHAQ Visual Analogue Scale - Finger Ulcers, Change from Baseline, Q3: 0.000; SHAQ Visual Analogue Scale - Finger Ulcers, Percent Change from Baseline, Max: 133.3%; SHAQ Visual Analogue Scale - Finger Ulcers, Percent Change from Baseline, Mean: −33.91%; SHAQ Visual Analogue Scale - Finger Ulcers, Percent Change from Baseline, Median: −36.11%; SHAQ Visual Analogue Scale - Finger Ulcers, Percent Change from Baseline, Min: −100.0%; SHAQ Visual Analogue Scale - Finger Ulcers, Percent Change from Baseline, Q1: −100.00%; SHAQ Visual Analogue Scale - Finger Ulcers, Percent Change from Baseline, Q3: −12.50%; SHAQ Visual Analogue Scale - Intestinal Problems, Change from Baseline, Max: 2.90; SHAQ Visual Analogue Scale - Intestinal Problems, Change from Baseline, Mean: −0.556; SHAQ Visual Analogue Scale - Intestinal Problems, Change from Baseline, Median: −0.100; SHAQ Visual Analogue Scale - Intestinal Problems, Change from Baseline, Min: −4.40; SHAQ Visual Analogue Scale - Intestinal Problems, Change from Baseline, Q1: −1.100; SHAQ Visual Analogue Scale - Intestinal Problems, Change from Baseline, Q3: 0.200; SHAQ Visual Analogue Scale - Intestinal Problems, Percent Change from Baseline, Max: 181.3%; SHAQ Visual Analogue Scale - Intestinal Problems, Percent Change from Baseline, Mean: −18.65%; SHAQ Visual Analogue Scale - Intestinal Problems, Percent Change from Baseline, Median: −54.13%; SHAQ Visual Analogue Scale - Intestinal Problems, Percent Change from Baseline, Min: −100.0%; SHAQ Visual Analogue Scale - Intestinal Problems, Percent Change from Baseline, Q1: −100.00%; SHAQ Visual Analogue Scale - Intestinal Problems, Percent Change from Baseline, Q3: 40.00%; SHAQ Visual Analogue Scale - Overall Disease Severity, Change from Baseline, Max: 1.90; SHAQ Visual Analogue Scale - Overall Disease Severity, Change from Baseline, Mean: −0.991; SHAQ Visual Analogue Scale - Overall Disease Severity, Change from Baseline, Median: −1.100; SHAQ Visual Analogue Scale - Overall Disease Severity, Change from Baseline, Min: −3.10; SHAQ Visual Analogue Scale - Overall Disease Severity, Change from Baseline, Q1: −1.650; SHAQ Visual Analogue Scale - Overall Disease Severity, Change from Baseline, Q3: −0.400; SHAQ Visual Analogue Scale - Overall Disease Severity, Percent Change from Baseline, Max: 100.0%; SHAQ Visual Analogue Scale - Overall Disease Severity, Percent Change from Baseline, Mean: −36.33%; SHAQ Visual Analogue Scale - Overall Disease Severity, Percent Change from Baseline, Median: −42.89%; SHAQ Visual Analogue Scale - Overall Disease Severity, Percent Change from Baseline, Min: −100.0%; SHAQ Visual Analogue Scale - Overall Disease Severity, Percent Change from Baseline, Q1: −58.95%; SHAQ Visual Analogue Scale - Overall Disease Severity, Percent Change from Baseline, Q3: −24.92%; SHAQ Visual Analogue Scale - Pain, Change from Baseline, Max: 0.90; SHAQ Visual Analogue Scale - Pain, Change from Baseline, Mean: −0.575; SHAQ Visual Analogue Scale - Pain, Change from Baseline, Median: −0.600; SHAQ Visual Analogue Scale - Pain, Change from Baseline, Min: −2.80; SHAQ Visual Analogue Scale - Pain, Change from Baseline, Q1: −1.200; SHAQ Visual Analogue Scale - Pain, Change from Baseline, Q3: 0.150; SHAQ Visual Analogue Scale - Pain, Percent Change from Baseline, Max: 20.5%; SHAQ Visual Analogue Scale - Pain, Percent Change from Baseline, Mean: −22.77%; SHAQ Visual Analogue Scale - Pain, Percent Change from Baseline, Median: −22.58%; SHAQ Visual Analogue Scale - Pain, Percent Change from Baseline, Min: −72.2%; SHAQ Visual Analogue Scale - Pain, Percent Change from Baseline, Q1: −53.33%; SHAQ Visual Analogue Scale - Pain, Percent Change from Baseline, Q3: 11.54%; SHAQ Visual Analogue Scale - Raynaud’s, Change from Baseline, Max: 1.50; SHAQ Visual Analogue Scale - Raynaud’s, Change from Baseline, Mean: −0.696; SHAQ Visual Analogue Scale - Raynaud’s, Change from Baseline, Median: −0.300
